Patent US4080467A, “Pharmaceutical compositions comprising 1,3-dithiolan-2-ylidene malonate derivatives” (Nihon Nohyaku Co., Ltd., priority 1976, dated 1978)

Experiments:
[1] = tested on: Acute Liver Damage associated with Centrilobular Necrosis (carbon tetrachloride); assay: Protective effect on acute liver damage associated with centrilobular necrosis (carbon tetrachloride model); type: in vivo, mice (four-week-old male, dd strain); conditions: 250 mg/kg oral 6 h before CCl4, average of 5 to 6 mice
Text: Carbon tetrachloride (CCl4) administration induces centrilobular necrosis of the liver associated with loss of diphosphopyridine nucleotide, hepatic glycogen, coenzyme A and increase in neutral fat. Release of several enzymes from the hepatocytes, and increases of enzyme activities in the plasma are recognized as the result of the damage of the liver. A suitable means for evaluating the degree of damage induced by CCl4 or the degree of protection afforded by drugs is to study the plasma glutamic-pyruvic transaminase (p-GPT) activity.
Method: The test compounds were dissolved or suspended in olive oil and administered orally at the dose of 250 mg/kg to the mice (Four-week-old male mice-dd strain). After 6 hours, CCl4 was administered orally (0.05 ml/kg as olive oil solution). Animals were killed 24 hours after CCl4 administration, and the liver was grossly observed. The plasma was obtained by centrifugation. Activities of p-GPT were determined by the method of Reitman and Frankel and expressed in Karmen units.
Score for liver damage was as follows: […]
4 Clearly observable damage
Each figure indicates average of 5 to 6 mice. Values of p-GPT over 1,000 Karmen unit regarded as 1,000 for calculation of average for convenience.

[2] = tested on: Chronic Liver Damage (thioacetamide); assay: Therapeutic effect on chronic liver damage (thioacetamide model), BSP test; type: in vivo, rats (Sprague Dawley strain); conditions: 12 times TAA 100 mg/kg, then diet + 0.2% compound
Description: In the tests of this Example, TAA was repeatedly administered to animals to prepare test animals suffering from somewhat chronic liver damages, and then the present compounds were administered thereto to know whether or not the compounds were effective against chronic hepatitis.
The degree of the liver damage and the therapeutic effects of the compounds were evaluated according to BSP test. The BSP test is a method in which BSP (sulfobromophthalein sodium), a dye known to be quickly metabolized in and excreted from the liver, is intravenously injected into animals and, after a definite period of time, the blood is taken out to measure the amount of BSP remaining in the plasma. In case the animals are suffering from the liver damage, the dye will remain, according to the degree of the damage, at the stage where a major portion of BSP is metabolized and excreted in the case of normal animals.
Five groups of rats (Sprague Dawley strain) were treated as follows:
Group A: The rats were orally administered with 100 mg/kg of thioacetamide,at 3 days intervals for 36 days (12 times of the administration), then were submitted for 10 days to a normal diet.
Group B: The rats were orally administered with 100 mg/kg of thioacetamide at 3 days intervals for 36 days (12 times of the administration), then were submitted for 10 days to the normal diet + 0.2% of compound 4.
Group C: The rats were orally administered with 100 mg/kg of thioacetamide at 3 days intervals for 36 days (12 times of the administration) then were submitted for 10 days to the normal diet + 0.2% of compound 2.
Group D: The rats were orally administered with 100 mg/kg of thioacetamide at 3 days intervals for 36 days (12 times of the administration) then were submitted for 10 days to the normal diet + 0.2% of anethol trithion.
Group E: The rats were submitted to the normal diet as the control.
Five rats were sacrified from each group at appropriate intervals for BSP (sulfobromophthalein) test, the results of which were shown as amounts (mg) of BSP remaining in 1 dl of plasma.

[3] = tested on: acute liver damage associated with periportal necrosis (allyl alcohol); assay: Protective effect on acute liver damage associated with periportal necrosis (allyl alcohol model), BSP test; type: in vivo, male mouse (4 week-old dd-strain); conditions: 100 mg/kg oral 6 h before allyl alcohol 0.075 ml/kg; 24 h after
Description: The compound of this invention or anethol trithion was orally administered to the male mouse (4 week-old dd-strain) at the dose of 100 mg/kg. Six hours after it, allyl alcohol was orally administered at the dose of 0.075 ml/kg. Twenty four hours after it, the animals were sacrificed to collect blood samples. The residual quantity of BSP was measured by BSP test, from which the protective effect of the compound of this invention was evaluated.

[4] = tested on: acute liver damage associated with discrete lobular necrosis (D-galactosamine); assay: Protective effect on acute hepatitis with mesenchymal reaction and discrete lobular necrosis (D-galactosamine model); type: in vivo, male rat (SD strain); conditions: 100 mg/kg oral 6 h before D-galactosamine
Description: D-Galactosamine is a compound which induces a discrete lobular necrosis associated with mesenchymal reaction similar to the change observed in human viral hepatitis, so that it is frequently used in producing a model for viral hepatitis.
The compound of this invention or anethol trithion was administered orally to the male rat (SD strain) at the dose of 100 mg/kg. Six hours after it, D-galacetosamine was intraperitoneally administered at the dose of 600 mg/kg. Four hours after it, an additional 300 mg/kg was administered intraperitoneally. Eight hours after it, the animals were sacrificed to collect the blood samples. P-GPT activity and triglyceride in the liver were measured to evaluate the effect of the compound of this invention.

[5] = tested on: bile flow and biliary salt; assay: Cholagogic action: bile flow and excretion of biliary salt; type: in vivo, male rat (4 week-aged, SD-JCL strain); conditions: 200 mg/kg oral; for bile flow / excretion of biliary salt: before treatment = 100
Description: The male rat (4 week-aged, SD-JCL strain) was anesthetized with sodium pentobarbital (37.5 mg/kg, intraperitoneal injection). The abdominal cavity was opened through a midline incision. The common bile duct was catheterized with polyethylene tube o.d. 0.8 mm. The catheter was brought to the outside through the abdominal incision wound prior to closing. Bile was collected from the catheter continuously with time intervals of one hour. The quantity of bile produced in one hour was determined by weighing and that of biliary salt was determined by enzymatic method (Ikagaku Jikkenho Koza 1B, Biological Constituents II, edited by Tamio YAMAKAWA). The amount of biliary salts was represented as cholic acid equivalent.
In the representation of the results, the quantities of bile and biliary salts produced in one hour prior to the administration of drug were taken as 100. The compound of this invention was orally administered at the dose of 200 mg/kg. As reference anethol trithion was used.

## COc1ccc(-c2cc(=S)ss2)cc1 [Anethol trithion, anethol trithion, reference compound]
[1]; 24 h after CCl4, values over 1,000 regarded as 1,000
  p-GPT (plasma glutamic-pyruvic transaminase activity): 38 Karmen units
[1]; 0 normal, 2 slightly recognized, 4 clearly observable damage, 6 heavy damage
  Liver Damage Index: 1.6
[2]; 2 Days
  Concentration of BSP in plasma: 9.7 ± 4.1 mg/dL
[2]; 5 Days
  Concentration of BSP in plasma: 7.3 ± 3.4 mg/dL
[2]; 10 Days
  Concentration of BSP in plasma: 0.9 ± 0.1 mg/dL
[3]
  Index of hepatotoxicity: BSP (residual quantity of BSP): 19.3±4.6
[4]
  Triglyceride in liver: 9.2 ± 1.5 mg/g
  p-GPT: 106±30 Karmen unit
[5]; 1 hour after treatment
  bile flow: 114±15
  excretion of biliary salt: 108±12
[5]; 2 hours after treatment
  bile flow: 114±15
  excretion of biliary salt: 89±11
[5]; 3 hours after treatment
  bile flow: 102±11
  excretion of biliary salt: 66±3.8
[5]; 4 hours after treatment
  bile flow: 95±7.7
  excretion of biliary salt: 47±3.0
[5]; 5 hours after treatment
  bile flow: 86±6.6
  excretion of biliary salt: 3.3±4.0
[5]; versus control
  Quantity of total excreted bile for 5 hours relative to control: 1.10 times
